Each molecule was assayed against human σ2 receptor (TMEM97) (Homo sapiens, UniProt Q5BJF2) (assay: biochemical). Conditions: read-out: % of control remaining.
Chain of human σ2 receptor (TMEM97) (Q5BJF2 whole entry): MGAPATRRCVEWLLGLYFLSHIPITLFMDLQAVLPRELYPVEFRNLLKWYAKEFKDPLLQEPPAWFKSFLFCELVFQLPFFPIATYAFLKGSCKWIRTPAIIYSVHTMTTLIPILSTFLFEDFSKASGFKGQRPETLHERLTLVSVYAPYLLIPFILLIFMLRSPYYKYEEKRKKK
Assay type: Expi293 membranes
Molecule `Cn1nc(C(=O)N2CC(O)(CNC(=O)C3=CCOCC3)C2)ccc1=O` [ZINC001042722400] has a remaining activity at 1 µM of 125%.
Work on `CNC(=O)NCC(=O)N1CC(O)(CNC(=O)c2ccc(F)s2)C1` [ZINC001043696212] yielded a remaining activity at 1 µM of 84.5%.
With `CN1CCCC[C@@H]1C(=O)NCC1(O)CN(C(=O)CCc2cn[nH]c2)C1` [ZINC001043772717] the remaining activity at 1 µM was 116%.
`CN(C)c1ccc(C(=O)N2CC(O)(CNC(=O)c3cnn[nH]3)C2)nc1` [ZINC001043817104] showed a remaining activity at 1 µM of 88.5%.
For `CCC[C@@H]1C[C@H]1C(=O)NCC1(O)CN(C(=O)C2CN(C(C)=O)C2)C1` [ZINC001046261579], the remaining activity at 1 µM was 114%.
`Cc1nc[nH]c1C(=O)N1CC(O)(CNC(=O)CN2CC[C@H](C)C2)C1` [ZINC001046685471] was tested, and the remaining activity at 1 µM was 101%.
For `C[C@H](C(=O)NCC1(O)CN(C(=O)Cn2ncnn2)C1)C1CCCC1` [ZINC001046914841], the remaining activity at 1 µM was 104%.
`NC(=O)[C@@H]1CCC[C@@H](C(=O)NCC2(O)CN(C(=O)C3CCC3)C2)C1` [ZINC001046939982] was tested, and the remaining activity at 1 µM was 110%.
`CC(C)n1cc(C(=O)N2CC(O)(CNC(=O)c3ccnnc3)C2)nn1` [ZINC001047126822] was tested, and the remaining activity at 1 µM was 107%.
`Cc1ccc(CN2C[C@@H]3CN(C(=O)c4cccn4C)C[C@@H]3C2)cc1C` [ZINC001048683995] gave a remaining activity at 1 µM of 61.7%.
For `Cc1ncc(CNC[C@@H]2CN(C(=O)c3cn(C)cn3)CCO2)cn1` [ZINC001051553588], the remaining activity at 1 µM was 105%.
`O=C(Cn1cnnn1)N[C@H]1CCN(c2ncnc3c2CCC3)C[C@H]1O` [ZINC001051633080] gave a remaining activity at 1 µM of 132%.
`CCN1CC[C@H](N2CCC[C@@H](NC(=O)c3ccc(O)nn3)CC2)C1=O` [ZINC001052175095] showed a remaining activity at 1 µM of 104%.
`COCCn1cc(C(=O)N2C[C@@H](C)[C@@H](NCc3ccccn3)C2)nn1` [ZINC001054647418] gave a remaining activity at 1 µM of 104%.
In the case of `Cc1cnc(C(=O)N2C[C@H]3CN(C(=O)CN(C)C(C)C)C[C@H]3C2)cn1` [ZINC001055138151], the remaining activity at 1 µM is reported as 103%.
`CC(=O)NCCN1CCC(NC(=O)c2c(Cl)n[nH]c2C)CC1` [ZINC001055479120] gave a remaining activity at 1 µM of 98.5%.
With `O=C(N[C@H]1CCN(c2cc(Cl)c(O)nn2)C1)c1c[nH]c(=O)cn1` [ZINC001058532763] the remaining activity at 1 µM was 95.3%.
In the case of `Cn1nnc2c(N3C[C@H]4CC[C@@H](C3)N4C(=O)c3cc[nH]n3)ncnc21` [ZINC001058732454], the remaining activity at 1 µM is reported as 93.6%.
For `O=C(NCC[C@@H]1CCN(C(=O)c2ccncn2)C1)c1c[nH]c(=O)cn1` [ZINC001060201073], the remaining activity at 1 µM was 76%.
In the case of `CN1CCC[C@@H]1C(=O)NC[C@H]1CCCN1c1ncnc2scnc12` [ZINC001061317651], the remaining activity at 1 µM is reported as 62.6%.
Molecule `CN1CCC(C(=O)NC[C@@H]2CCN(c3ncc(Cl)cn3)C2)CC1` [ZINC001061620290] has a remaining activity at 1 µM of 91.3%.
`CN(C)C(=O)c1cncc(N[C@H]2CC[C@H](NC(=O)C(N)=O)CC2)n1` [ZINC001063398490] was tested, and the remaining activity at 1 µM was 146%.
Molecule `Cn1cc(C(=O)N2CCO[C@@H](CNC(=O)C=C3CCC3)C2)ncc1=O` [ZINC001065434920] has a remaining activity at 1 µM of 57.8%.
With `O=C(c1cccnn1)N1CCC(O)(CNc2cncc(Cl)n2)CC1` [ZINC001067478391] the remaining activity at 1 µM was 104%.
`C[C@@H]1CN(C(=O)Cc2cncnc2)C[C@H]1NC(=O)CCn1cccn1` [ZINC001071984909] gave a remaining activity at 1 µM of 89.9%.
Work on `CNC(=O)[C@@H](C)N1CCC2(CN(C(=O)c3c[nH]c4nccc-4c3)C2)C1` [ZINC001072835483] yielded a remaining activity at 1 µM of 81.8%.
With `CCc1cc(C(=O)NC[C@H]2CN(CCn3cncn3)CCCO2)no1` [ZINC001073859800] the remaining activity at 1 µM was 110%.
Work on `CN1CC[C@@H](C(=O)NC[C@H]2CN(Cc3csnn3)CCCO2)C1` [ZINC001073886256] yielded a remaining activity at 1 µM of 113%.
In the case of `O=C(C[C@H]1C=CCC1)NCC1(O)CCN(C(=O)c2cncnc2)CC1` [ZINC001074556982], the remaining activity at 1 µM is reported as 89.6%.
`NC(=O)C(=O)N1CCC(O)(CNC(=O)[C@H]2CCCCC2(F)F)CC1` [ZINC001074702922] showed a remaining activity at 1 µM of 109%.
`Cc1c(F)cccc1C(=O)N[C@@H]1CN(CCC2CCCCC2)C[C@H]1O` [ZINC001077034834] showed a remaining activity at 1 µM of 16.5%.
`C[C@@H](CCNC(=O)C1(CN(C)C)CC1)NC(=O)c1ncccc1O` [ZINC001078073018] was tested, and the remaining activity at 1 µM was 111%.
`CC[C@@H]1[C@@H](NC(=O)Cc2ccc(C)cc2)CCN1C[C@@H]1CCOC1` [ZINC001087646081] showed a remaining activity at 1 µM of 99.4%.
`Cc1ccoc1CC(=O)N1C[C@H]2CCN(CC(=O)N(C)C)C[C@H]2C1` [ZINC001088099598] showed a remaining activity at 1 µM of 132%.
For `Cc1ccc(CN2[C@@H]3CC[C@H]2[C@@H](NC(=O)c2cn(C)cn2)C3)c(C)c1` [ZINC001095312060], the remaining activity at 1 µM was 69.4%.
`C[C@H](C(=O)N[C@H]1C[C@H]2CC[C@@H]1N2CCn1cccn1)c1ccccc1F` [ZINC001096194954] gave a remaining activity at 1 µM of 118%.
`O=C(N[C@@H]1CCN(CCC2CCCC2)C[C@@H]1O)C1(C(F)F)CCC1` [ZINC001099969021] showed a remaining activity at 1 µM of 28.5%.
In the case of `Cc1cc(C)nc(NC[C@@H](O)CNC(=O)[C@@H]2CCc3c[nH]nc3C2)n1` [ZINC001105862991], the remaining activity at 1 µM is reported as 76.1%.
With `C[C@H](C(=O)N[C@H]1C[C@H]2CC[C@@H]1N2CCOCC1CC1)c1cccs1` [ZINC001109713565] the remaining activity at 1 µM was 28.7%.
In the case of `O=C1CN(CC(=O)N[C@H](CNc2cc(F)ncn2)C2CC2)CCN1` [ZINC001109958062], the remaining activity at 1 µM is reported as 90.2%.
Molecule `CN(C)S(=O)(=O)CCC(=O)N[C@H]1[C@@H]2CN(Cc3ccon3)C[C@@H]21` [ZINC001115282185] has a remaining activity at 1 µM of 109%.
Molecule `CO[C@@H](CNC(=O)C(=O)N1C[C@@H]2C(=O)N(C)C(=O)[C@@H]2C1)CC(C)C` [ZINC001119173847] has a remaining activity at 1 µM of 95.8%.
For `O=C(NCCN1CCNC1=O)C(=O)NC[C@H]1CCc2ccccc21` [ZINC001119470858], the remaining activity at 1 µM was 107%.
Molecule `CN(C[C@@H](O)CN(C)c1ncc(F)cn1)C(=O)CCc1cnn[nH]1` [ZINC001125309519] has a remaining activity at 1 µM of 88%.
`CN1CCC[C@@H]1C(=O)NC[C@H]1CN(CCCC(C)(C)C)CCCO1` [ZINC001149399826] gave a remaining activity at 1 µM of 96.4%.
`C(=C\c1ccccc1)/CNc1ccc2c(n1)CCC2` [ZINC001156463732] gave a remaining activity at 1 µM of 32.6%.
`Cc1cc(C)cc(C2=CCN(CCC(=O)N3CCc4ccccc43)CC2)c1` [ZINC001168222793] showed a remaining activity at 1 µM of 13.7%.
Molecule `C[C@@H](C(=O)NCc1ccc(Cl)cc1)N1CCC(C(C)(C)C)CC1` [ZINC001169307444] has a remaining activity at 1 µM of 21.2%.
`CCOCCNC(=O)CN1C[C@@H](O)[C@H](NC(=O)[C@@]23COC[C@@H]2C3)C1` [ZINC001193095852] gave a remaining activity at 1 µM of 112%.
Work on `COc1ccc2c(c1)C[C@H](CN1CCCC[C@H]1CCC(=O)OC(C)(C)C)O2` [ZINC001195393353] yielded a remaining activity at 1 µM of 54.5%.
Work on `CCc1ccc(F)cc1C(=O)N1CCCN(CCOC(C)C)CC1` [ZINC001196417557] yielded a remaining activity at 1 µM of 71.9%.
`Cc1cc(C(=O)N2CCCO[C@@H](CNCC(=O)NC3CC3)C2)n(C)n1` [ZINC001199969207] was tested, and the remaining activity at 1 µM was 124%.
In the case of `CN(C)S(=O)(=O)N(C)CC(=O)N[C@@H]1C[C@H](NCCO)C12CCC2` [ZINC001202928172], the remaining activity at 1 µM is reported as 117%.
`C[C@@H]1CN([C@H]2CCc3ccccc3NC2=O)C[C@H]1NC(=O)/C=C\C(C)(C)C` [ZINC001206651458] was tested, and the remaining activity at 1 µM was 109%.
In the case of `CCNS(=O)(=O)CCNC(=O)C(=O)N[C@@H](C)C1=CCN(C)CC1` [ZINC001261177261], the remaining activity at 1 µM is reported as 70.9%.
With `CN1C(=O)[C@H]2CN(C(=O)C(=O)NC3CCC(F)(F)CC3)C[C@H]2C1=O` [ZINC001261948364] the remaining activity at 1 µM was 90.8%.
`CC[C@H]1CCN(CC(=O)Nc2cc(Cl)ccc2C#N)[C@H]1C` [ZINC001307701283] was tested, and the remaining activity at 1 µM was 62.5%.
`FC(F)(F)c1ccnc([C@H]2CCN(CCCc3ccc4c(c3)CCO4)C2)n1` [ZINC001308961074] was tested, and the remaining activity at 1 µM was 2.4%.
Molecule `OC1(CN2CC(Cc3ccccc3C(F)(F)F)C2)CCC1` [ZINC001320149247] has a remaining activity at 1 µM of 14.7%.
For `COC(=O)N1CCC[C@H](NC(=O)C(=O)N2CC[C@@](O)(C3CC3)C2)C1` [ZINC001323717111], the remaining activity at 1 µM was 95%.
`COC(=O)[C@@H]1C[C@H](O)CN(C(=O)C(=O)N[C@H](C)C2CCOCC2)C1` [ZINC001326422624] was tested, and the remaining activity at 1 µM was 99.2%.
`C[C@@H](CNC(=O)C(=O)NCc1nnn(C)n1)N(C)Cc1ccccc1` [ZINC001328800283] gave a remaining activity at 1 µM of 86.4%.
Molecule `COc1cccc2c1OC[C@H](NC(=O)C(=O)N[C@@H]1CC(=O)N(C)C1)C2` [ZINC001341791776] has a remaining activity at 1 µM of 222%.
`O=C(Nc1ccc2c(=O)[nH]ccc2c1)C(=O)N1C[C@H](CO)[C@@H](O)C1` [ZINC001350153389] gave a remaining activity at 1 µM of 93.3%.
`CN(C[C@H]1CCCN1C)C(=O)[C@]1(C)CC(c2ccccc2Cl)=NO1` [ZINC001362573982] gave a remaining activity at 1 µM of 94.8%.
With `O=C([C@@H]1CCc2nnc(O)n2C1)N1CC(CNC(=O)C(F)(F)F)C1` [ZINC001363211634] the remaining activity at 1 µM was 78.6%.
Molecule `O=S(=O)(N[C@@H]1CCc2nnnn2CC1)c1cnc2n1CCCC2` [ZINC001363999416] has a remaining activity at 1 µM of 104%.
Work on `COC[C@@H](O)CN1CC[C@H](NC(=O)c2c(C)c(C)nn(C)c2=O)C1` [ZINC001365986475] yielded a remaining activity at 1 µM of 109%.
For `O=C(CCn1cccn1)NCCN1CCN(CCn2cccn2)CC1` [ZINC001369886058], the remaining activity at 1 µM was 111%.
`CCC1(C(=O)NCC[C@@H]2CCN(Cc3nccn3C)C2)CCCC1` [ZINC001377717241] was tested, and the remaining activity at 1 µM was 102%.
For `Cc1ccnc(CN[C@@H](C)CCNC(=O)c2ccn(C(C)C)c2C)n1` [ZINC001381212829], the remaining activity at 1 µM was 71.1%.
`O=C(NCC1CN(CCC2CCCC2)C1)C1(c2cccnc2)CC1` [ZINC001391502525] was tested, and the remaining activity at 1 µM was 43.6%.
In the case of `C[C@@H]1CCC[C@H](CCN(C)CCNC(=O)c2c3c(nn2C)CCC3)C1` [ZINC001399642198], the remaining activity at 1 µM is reported as 21.2%.
For `COc1ccc(C(=O)N(C)C[C@H](C)NCC2CCC(C)(C)CC2)nn1` [ZINC001403624658], the remaining activity at 1 µM was 65.3%.
With `CC(=O)N[C@@H]1CCN(S(=O)(=O)c2cnn([C@@H]3CCOC3)c2)C1` [ZINC001413380655] the remaining activity at 1 µM was 118%.
`CCN1CCCC[C@H]1C(=O)NC[C@@H](O)CNC(=O)c1cnccn1` [ZINC001416718427] gave a remaining activity at 1 µM of 80.5%.

Source: publication doi:10.1101/2021.04.29.441652v1 (biorxiv, 2021)
